Data taken from paper PMC6522510 (Nature Communications, 2019).
Like-named read-outs stand apart in the source and are kept apart here.

How the values were obtained:
Assay in all cases: Secondary dose-response HTS, Cell Titer Glo; call rule not given here
Format in all cases: cell-based, human
M07e = system: M07e
U937 = system: U937
MOLM-13 = settings: MOLM-13
CMK = settings: CMK
CHRF288-11 = system: CHRF288-11
CMS = system: CMS
MV4-11 = settings: MV4-11; for EC50: Homo sapiens
ML2 = settings: ML-2
[1] = Homo sapiens, M-07e, secondary high-throughput screen, M07e, read-out: average effective concentration, M07e
[2] = secondary high-throughput screen, M07e
[3] = secondary high-throughput screen, U937
[4] = secondary high-throughput screen
[5] = secondary high-throughput screen, CHRF288-11
[6] = secondary high-throughput screen, CMS
[7] = secondary high-throughput screen, M07e, read-out: average effective concentration, M07e
[8] = secondary high-throughput screen, U937, read-out: average effective concentration, U937
[9] = secondary high-throughput screen, CHRF288-11, read-out: average effective concentration, CHRF288-11
[10] = secondary high-throughput screen, read-out: average effective concentration, ML-2

Row | SMILES | average effective concentration, M07e (M07e; [2]) | average effective concentration, U937 (U937; [3]) | average effective concentration, MOLM-13 (MOLM-13; [4]) | average effective concentration, CMK (CMK; [4]) | average effective concentration, CHRF288-11 (CHRF288-11; [5]) | average effective concentration, CMS (CMS; [6]) | average effective concentration, MV4-11 (MV4-11; [4]) | average effective concentration, ML-2 (ML2; [4]) | EC50 (M07e; [7]) [nM] | other results
1 | COc1ncc(-c2ccc3nccc(-c4ccnnc4)c3c2)cc1NS(=O)(=O)c1ccc(F)cc1F [GSK-2126458] | – | – | – | – | – | – | – | – | – | EC50 (M07e; [1]): 5600 nM; EC50 (U937; Homo sapiens, U-937, secondary high-throughput screen, U937, read-out: average effective concentration, U937): 1 nM; EC50 (MOLM-13; Homo sapiens, secondary high-throughput screen, read-out: average effective concentration, MOLM-13): 940 nM; EC50 (CMK; Homo sapiens, read-out: average effective concentration, CMK): 1 nM; EC50 (CHRF288-11; Homo sapiens, HTS, secondary high-throughput screen, CHRF288-11, read-out: average effective concentration, CHRF288-11): 1300 nM; EC50 (CMS; Homo sapiens, HTS, read-out: average effective concentration, CMS): 40 nM; EC50 (MV4-11; secondary high-throughput screen, read-out: average effective concentration, MV4-11): 1 nM; EC50 (ML2; Homo sapiens, secondary high-throughput screen, read-out: average effective concentration, ML-2): 1 nM
2 | O=C1Nc2ccc(I)cc2/C1=C/c1cc(Br)c(O)c(Br)c1 [GW 5074] | Inactive | Inactive | Inactive | Inactive | Inactive | Inactive | Inactive | Inactive | – | –
3 | CC(C)=CCC[C@]1(C)C=Cc2c(O)c3c(c(CC=C(C)C)c2O1)O[C@]12C(=C[C@@H]4C[C@H]1C(C)(C)O[C@@]2(C/C=C(/C)C(=O)O)C4=O)C3=O [Gambogic acid, reference compound] | – | – | – | – | – | – | – | – | – | EC50 (M07e; Homo sapiens, M-07e, secondary HTS, 72 h, average of triplicate, read-out: EC50 M07e): 240 nM; EC50 (U937; Homo sapiens, U-937, secondary HTS, 72 h, average of triplicate, read-out: EC50 U937): 190 nM; EC50 (MOLM-13; Homo sapiens, secondary HTS, 72 h, average of triplicate, read-out: EC50 MOLM-13): 190 nM; EC50 (CMK; Homo sapiens, secondary HTS, 72 h, average of triplicate, read-out: EC50 CMK): 360 nM; EC50 (CHRF288-11; Homo sapiens, secondary HTS, 72 h, average of triplicate, read-out: EC50 CHRF288-11): 220 nM; EC50 (CMS; Homo sapiens, secondary HTS, 72 h, average of triplicate, read-out: EC50 CMS): 260 nM; EC50 (MV4-11; secondary HTS, 72 h, average of triplicate, read-out: EC50 MV4-11): 170 nM; EC50 (ML2; Homo sapiens, secondary HTS, 72 h, average of triplicate, read-out: EC50 ML2): 150 nM
4 | O=[N+]([O-])c1c(Nc2cc(F)cc(Cl)c2)ccc2nonc12 [HIF-C2] | Inactive | Inactive | – | Inactive | Inactive | Inactive | Inactive | Inactive | – | EC50 (MOLM-13; secondary high-throughput screen, read-out: average effective concentration, MOLM-13): 13 nM
5 | O=C1c2ccccc2-c2nc3nnnn3nc21.O=C1c2ccccc2-c2nn3nnnc3nc21 [KP-372-1] | – | – | Inactive | – | – | – | Inactive | – | 53 | EC50 (U937; [8]): 10 nM; EC50 (CMK; secondary high-throughput screen, read-out: average effective concentration, CMK): 24 nM; EC50 (CHRF288-11; [9]): 38 nM; EC50 (CMS; secondary high-throughput screen, CMS, read-out: average effective concentration, CMS): 31 nM; EC50 (ML2; [10]): 6 nM
6 | C[C@@H]1CN(CC(=O)Nc2ccc3c(c2)Cc2cccc(-c4cc(=O)cc(N5CCOCC5)o4)c2S3)C[C@H](C)O1 [KU60019] | Inactive | Inactive | Inactive | Inactive | Inactive | – | Inactive | Inactive | – | EC50 (CMS; Homo sapiens, HTS, secondary high-throughput screen, CMS, read-out: average effective concentration, CMS): > 10000 nM
7 | C[N+](C)(C)[C@@H](Cc1c[nH]c(=S)[nH]1)C(=O)[O-] [L-(+)-ERGOTHIONEINE] | – | Inactive | Inactive | Inactive | Inactive | Inactive | Inactive | Inactive | 3200 | –
8 | Cn1c(/C=C/C(=O)NO)ccc1/C=C/C(=O)c1cccc(F)c1 [MC1568] | – | – | Inactive | Inactive | – | Inactive | Inactive | – | 460 | EC50 (U937; [8]): 3400 nM; EC50 (CHRF288-11; [9]): 4900 nM; EC50 (ML2; [10]): 4300 nM
9 | CCOC(=O)c1cc2ccccc2nc1C [MC-1626] | Inactive | Inactive | Inactive | Inactive | Inactive | Inactive | Inactive | Inactive | – | –
10 | CC12CC3CC(C)(C1)CC(N)(C3)C2 [MEMANTINE] | – | Inactive | Inactive | Inactive | Inactive | Inactive | Inactive | Inactive | – | EC50 (M07e; [1]): > 10000 nM
